{"source": "patent US20160303150A1", "about": "“DEUTERATED TREHALOSE FORMULATIONS AND USES THEREOF” (BioBlast Pharma Ltd., priority 2015, published 2016)", "origin": "cited, not measured here", "key": {"[1]": {"conditions": "in vivo"}, "[2]": {"conditions": "0.2%-5% trehalose in drinking water, 5-9 weeks, transgenic HD mice"}}}
{"smiles": "OC[C@H]1O[C@H](O[C@H]2O[C@H](CO)[C@@H](O)[C@H](O)[C@H]2O)[C@H](O)[C@@H](O)[C@@H]1O", "note": "[trehalose, α-G-glucopyranosyl α-D-glucopyranoside]", "values": [{"measurement": "fraction of administered trehalose not absorbed into the blood stream", "setting": "[1]", "value": "over 99.5%"}, {"measurement": "HD-related motor symptoms", "setting": "transgenic HD mice; [2]", "value": "improvement of HD-related motor symptoms"}, {"measurement": "formation of intra-nuclear huntingtin aggregates in the brain and liver", "setting": "transgenic HD mice; [2]", "value": "inhibition of formation of intra-nuclear huntingtin aggregates in the brain and liver"}, {"measurement": "survival", "setting": "transgenic HD mice; oral administration, HD mouse model", "value": "extend survival"}, {"measurement": "aggregation formation and toxicity of mutant PABPN1 in myocytes", "setting": "transgenic OPMD mice; 2% trehalose in drinking water, 4-6 months", "value": "significantly reduce aggregation formation and toxicity of the mutant PABPN1 in myocytes"}, {"measurement": "OPMD onset, disease phenotype, aggregate formation and cell death", "setting": "transgenic OPMD mice; oral trehalose", "value": "delay the OPMD onset, attenuate the disease phenotype, decrease polyalanine protein aggregate formation and decrease cell death"}, {"measurement": "oral amount causing diarrhea and bloating", "setting": "oral", "value": "40-50 gram per day"}, {"measurement": "safety findings in healthy volunteers", "setting": "oral doses ranging from 10 to 60 gr, healthy volunteers", "value": "no other safety issues were reported"}, {"measurement": "oral amount frequently causing diarrhea, bloating and discomfort", "setting": "oral, humans", "value": "higher than 50 g a day"}]}
